# Laboratory results reported in patent publication US20240343704A1, “HALO-SUBSTITUTED AMINO PYRIDINE COMPOUNDS AS INHIBITORS OF THE HAEMATOPOIETIC PROGENITOR KINASE 1 (HPK1)” (priority 2021, published 2024).
# How the values were obtained:
# [1] = molecular target: T1, Recombinant (1-346) HPK1 (h) (Homo sapiens, UniProt Q92918); experiment: HPK1 Human STE Kinase Enzymatic Radiometric Assay; assay type: biochemical; conditions: read-out: HPK1 IC50 nM Range*
# T1 construct: Recombinant (1-346) HPK1 (h) is incubated with 8 mM MOPS pH 7.0
# T1 sequence (Q92918 1-346): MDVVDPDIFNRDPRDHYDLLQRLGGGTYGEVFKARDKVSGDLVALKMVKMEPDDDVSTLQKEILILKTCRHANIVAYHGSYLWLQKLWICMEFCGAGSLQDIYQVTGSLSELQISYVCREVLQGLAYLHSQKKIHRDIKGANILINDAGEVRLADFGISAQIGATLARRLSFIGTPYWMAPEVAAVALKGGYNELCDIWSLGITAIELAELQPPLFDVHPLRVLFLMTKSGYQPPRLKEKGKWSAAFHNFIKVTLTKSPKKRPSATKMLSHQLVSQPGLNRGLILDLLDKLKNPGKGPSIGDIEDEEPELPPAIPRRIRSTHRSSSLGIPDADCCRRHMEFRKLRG
# Protocol: A stock solution of 10 mM of test compound is prepared in DMSO. The compound plate was prepared by 3-fold and 9-point serial dilutions. […] The reaction is initiated by The addition of the Mg/ATP mix. After incubation for 40 minutes at RT, the reaction is stopped by the addition of phosphoric acid to a concentration of 0.5%.
# Lck (h) = Lck (h) (Homo sapiens, UniProt P06239); experiment: Lck Human  Kinase Enzymatic Radiometric Assay; assay type: biochemical; conditions: read-out: Lck IC50 nM Range*
# Protocol: Lck (h) is incubated with 50 mM Tris pH 7.5, 0.1 mM EGTA, 0.1 mM Na3VO4, 250 uM KVEKIGEGTYGVVYK (Cdc2 peptide), 10 mM MgAcetate and [gamma-33P]-ATP (specific activity and concentration as required). The reaction is initiated by the addition of the Mg/ATP mix. After incubation for 40 minutes at RT, the reaction is stopped by the addition of phosphoric acid to a concentration of 0.5%. 10 uL of the reaction is then spotted onto a P30 filtermat and washed four times for 4 minutes in 0.425% phosphoric acid and once in methanol prior to drying and scintillation counting. For more details on the kinase assay procedures see: Gao, Y. et. al.; Biochem J., 451 (2): 313-328, 2013.
# Sequence of Lck (h) (P06239 whole entry): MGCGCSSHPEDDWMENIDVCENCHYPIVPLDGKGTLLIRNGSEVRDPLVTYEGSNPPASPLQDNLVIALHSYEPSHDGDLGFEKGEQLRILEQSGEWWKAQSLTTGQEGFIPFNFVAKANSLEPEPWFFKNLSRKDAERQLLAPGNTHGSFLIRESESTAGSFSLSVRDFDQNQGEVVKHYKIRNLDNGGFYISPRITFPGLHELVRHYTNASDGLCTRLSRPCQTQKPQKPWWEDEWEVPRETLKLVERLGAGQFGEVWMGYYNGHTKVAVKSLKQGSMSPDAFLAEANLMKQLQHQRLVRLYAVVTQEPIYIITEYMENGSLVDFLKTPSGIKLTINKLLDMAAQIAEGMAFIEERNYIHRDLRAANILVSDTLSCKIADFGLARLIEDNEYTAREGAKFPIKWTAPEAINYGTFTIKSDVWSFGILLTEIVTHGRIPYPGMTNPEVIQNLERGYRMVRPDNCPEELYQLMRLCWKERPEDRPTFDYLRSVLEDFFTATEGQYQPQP
SMILES,IC50 [1] [nM],IC50 (Lck (h)) [nM]
"CN1CCN(c2ccc(-c3cc(-c4ccc5c(c4)CCNC5=O)c(N)nc3F)nc2)CC1 [I-27, 6-(6′-amino-2′-fluoro-5-(4methylpiperazin-1-yl)-[2,3′-bipyridin]-5′-yl)-3,4dihydroisoquinolin-1(2H)-one acetate]",0.1 to 10,> 1000
"C[Si](C)(O)c1ccc(-c2cc(-c3ccc4c(c3)CCNC4=O)c(N)nc2F)cc1 [I-28, 6-(2-amino-6-fluoro-5-(4-(hydroxydimethylsilyl)phenyl)pyridin-3-yl)-3,4-dihydroisoquinolin-1(2H)-one]",11 to 100,> 1000
"CN1CCN(c2ccc(-c3cc(-c4ccc5c(c4)C(C)(C)NC5=O)c(N)nc3F)cc2)CC1 [I-33, 5-(2-amino-6-fluoro-5-(4-(4-Methylpiperazin-1-yl)phenyl)pyridin-3-yl)-3,3-dimethylisoindolin-1-one]",0.1 to 10,> 1000
"CN1C[C@H]2C[C@@]2(c2ccc(-c3cc(-c4ccc5c(c4)C(C)(C)NC5=O)c(N)nc3F)cc2)C1 [I-36, 5-(2-amino-6-fluoro-5-(4-((1R,5S)-3-methyl-3-azabicyclo[3.1.0]hexan-1-yl)phenyl)pyridin-3-yl)-3,3-dimethylisoindolin-1-one]",0.1 to 10,> 1000
"CN1CCN(c2ccc(-c3cc(-c4ccc5c(c4)C(C)(C)NC5=O)c(N)nc3F)cc2)C=N1 [I-37, 5-(2-amino-6-fluoro-5-(4-(1-methyl-5,6-dihydro-1,2,4-triazin-4(1H)-yl)phenyl)pyridin-3-yl)-3,3-dimethylisoindolin-1-one 2,2,2-trifluoroacetate]",11 to 100,> 1000
"Nc1nc(F)c(-c2ccc(N3CCN4CCOC[C@@H]4C3)cc2)cc1-c1ccc2c(c1)CCNC2=O [I-39, (S)-6-(2-amino-6-fluoro-5-(4-(hexahydropyrazino[2,1-c][1,4]oxazin-8(1H)-yl)phenyl)pyridin-3-yl)-3,4-dihydroisoquinolin-1(2H)-one]",0.1 to 10,> 1000
"CN1CCN(c2ccc(-c3cc(-c4ccc5c(c4)CCNC5=O)c(N)nc3F)cc2F)CC1 [I-40, 6-(2-amino-6-fluoro-5-(3-fluoro-4-(4-methylpiperazin-1-yl)phenyl)pyridin-3-yl)-3,4-dihydroisoquinolin-1(2H)-one]",0.1 to 10,> 1000
"Nc1nc(F)c(-c2ccc(C3CCN(CC(F)F)CC3)cc2)cc1-c1ccc2c(c1)CCNC2=O [I-43, 6-(2-amino-5-(4-(1-(2,2-difluoroethyl)piperidin-4-yl)phenyl)-6-fluoropyridin-3-yl)-3,4-dihydroisoquinolin-1(2H)-one]",0.1 to 10,> 1000
"CN1CCC(Oc2ccc(-c3cc(-c4ccc5c(c4)CCNC5=O)c(N)nc3F)cc2)CC1 [I-44, 6-(2-amino-6-fluoro-5-(4-((1-methylpiperidin-4-yl)oxy)phenyl)pyridin-3-yl)-3,4-dihydroisoquinolin-1(2H)-one]",0.1 to 10,> 1000
"C[C@@H]1CCCN1c1ccc(-c2cc(-c3ccc4c(c3)CCNC4=O)c(N)nc2F)cc1 [I-46, (R)-6-(2-amino-6-fluoro-5-(4-(2-methylpyrrolidin-1-yl)phenyl)pyridin-3-yl)-3,4-dihydroisoquinolin-1(2H)-one]",11 to 100,> 1000
"C[C@@H]1CCCN1c1ccc(-c2cc(-c3ccc4c(c3)CCNC4=O)c(N)nc2F)c(F)c1 [I-47, (R)-6-(2-amino-6-fluoro-5-(2-fluoro-4-(2-methylpyrrolidin-1-yl)phenyl)pyridin-3-yl)-3,4-dihydroisoquinolin-1(2H)-one]",11 to 100,> 1000

# Now from value to molecule:
IC50 [1] [nM],IC50 (Lck (h)) [nM],SMILES
0.1 to 10,> 1000,"Nc1nc(F)c(-c2ccc(OC3CCNCC3)cc2)cc1-c1ccc2c(c1)CCNC2=O [I-22, 6-(2-amino-6-fluoro-5-(4-(piperidin-4-yloxy)phenyl)pyridin-3-yl)-3,4-dihydroisoquinolin-1(2H)-one]"
0.1 to 10,> 1000,"Nc1nc(F)c(-c2ccc(N3CCN4CCOCC4C3)cc2)cc1-c1ccc2c(c1)CCNC2=O (stereo not drawn) [I-23, 6-(2-amino-6-fluoro-5-(4-(hexahydropyrazino[2,1-c][1,4]oxazin-8(1H)-yl)phenyl)pyridin-3-yl)-3,4-dihydroisoquinolin-1(2H)-one]"
0.1 to 10,> 1000,"CO[C@@H](C)CN1CCN(c2ccc(-c3cc(-c4ccc5c(c4)CCNC5=O)c(N)nc3F)cc2)CC1 [I-24, (S)-6-(2-amino-6-fluoro-5-(4-(4-(2-methoxypropyl)piperazin-1-yl)phenyl)pyridin-3-yl)-3,4-dihydroisoquinolin-1(2H)-one]"
0.1 to 10,> 1000,"CO[C@H](C)CN1CCN(c2ccc(-c3cc(-c4ccc5c(c4)CCNC5=O)c(N)nc3F)cc2)CC1 [I-25, (R)-6-(2-amino-6-fluoro-5-(4-(4-(2-methoxypropyl)piperazin-1-yl)phenyl)pyridin-3-yl)-3,4-dihydroisoquinolin-1(2H)-one]"
0.1 to 10,> 1000,"Nc1nc(F)c(-c2ccc(N3CCOCC3)cn2)cc1-c1ccc2c(c1)CCNC2=O [I-26, 6-(6′-amino-2′-fluoro-5-morpholino-[2,3′-bipyridin]-5′-yl)-3,4-dihydroisoquinolin-1(2H)-one]"
0.1 to 10,> 1000,"COCCN1CCN(c2ccc(-c3cc(-c4ccc5c(c4)CCNC5=O)c(N)nc3F)cc2)CC1 [I-29, 6-(2-amino-6-fluoro-5-(4-(4-(2-methoxyethyl)piperazin-1-yl)phenyl)pyridin-3-yl)-3,4-dihydroisoquinolin-1(2H)-one]"
0.1 to 10,> 1000,"Nc1nc(F)c(-c2ccc(C3CCNCC3)cc2)cc1-c1ccc2c(c1)CCNC2=O [I-30, 6-(2-amino-6-fluoro-5-(4-(piperidin-4-yl)phenyl)pyridin-3-yl)-3,4-dihydroisoquinolin-1(2H)-one]"
0.1 to 10,> 1000,"CN1CCN(c2ccc(-c3cc(-c4ccc5c(c4)CCNC5=O)c(N)nc3F)cc2)C=N1 [I-31, 6-(2-amino-6-fluoro-5-(4-(1-methyl-5,6-dihydro-1,2,4-triazin-4(1H)-yl)phenyl)pyridin-3-yl)-3,4-dihydroisoquinolin-1(2H)-one]"
11 to 100,> 1000,"CN1CCN(c2ccc(-c3cc(-c4ccc5c(c4)CNC5=O)c(N)nc3F)cc2)CC1 [I-32, 5-(2-amino-6-fluoro-5-(4-(4-methylpiperazin-1-yl)phenyl)pyridin-3-yl)isoindolin-1-one]"
0.1 to 10,> 1000,"CC(=O)N1CCC(Oc2ccc(-c3cc(-c4ccc5c(c4)CCNC5=O)c(N)nc3F)cc2)CC1 [I-34, 6-(5-(4-((1-acetylpiperidin-4-yl)oxy)phenyl)-2-amino-6-fluoropyridin-3-yl)-3,4-dihydroisoquinolin-1(2H)-one]"
0.1 to 10,> 1000,"Nc1nc(F)c(-c2ccc(OC3CCOCC3)cc2)cc1-c1ccc2c(c1)CCNC2=O [I-35, 6-(2-amino-6-fluoro-5-(4-((tetrahydro-2H-pyran-4-yl)oxy)phenyl)pyridin-3-yl)-3,4-dihydroisoquinolin-1(2H)-one]"
0.1 to 10,> 1000,"Nc1nc(F)c(-c2ccc(N3CCN4CCOC[C@H]4C3)cc2)cc1-c1ccc2c(c1)CCNC2=O [I-38, (R)-6-(2-amino-6-fluoro-5-(4-(hexahydropyrazino[2,1-c][1,4]oxazin-8(1H)-yl)phenyl)pyridin-3-yl)-3,4-dihydroisoquinolin-1(2H)-one]"
0.1 to 10,> 1000,"CCN1CCN(c2ccc(-c3cc(-c4ccc5c(c4)CCNC5=O)c(N)nc3F)cc2)CC1 [I-41, 6-(2-amino-5-(4-(4-ethylpiperazin-1-yl)phenyl)-6-fluoropyridin-3-yl)-3,4-dihydroisoquinolin-1(2H)-one]"
0.1 to 10,> 1000,"CC(C)N1CCN(c2ccc(-c3cc(-c4ccc5c(c4)CCNC5=O)c(N)nc3F)cc2)CC1 [I-42, 6-(2-amino-6-fluoro-5-(4-(4-isopropylpiperazin-1-yl)phenyl)pyridin-3-yl)-3,4-dihydroisoquinolin-1(2H)-one]"
0.1 to 10,> 1000,"CN(C)CCN(C)c1ccc(-c2cc(-c3ccc4c(c3)CCNC4=O)c(N)nc2F)cc1 [I-45, 6-(2-amino-5-(4-((2-(dimethylamino)ethyl)(methyl)amino)phenyl)-6-fluoropyridin-3-yl)-3,4-dihydroisoquinolin-1(2H)-one]"
0.1 to 10,> 1000,"CC(C)[C@@H]1CN(c2ccc(-c3cc(-c4ccc5c(c4)CCNC5=O)c(N)nc3F)cc2)CCN1C [I-48, (R)-6-(2-amino-6-fluoro-5-(4-(3-isopropyl-4-methylpiperazin-1-yl)phenyl)pyridin-3-yl)-3,4-dihydroisoquinolin-1(2H)-one]"
